What was measured:
FimH = molecular target: T1, FimH (Escherichia coli, UniProt Q1R2J4); assay type: cell-based; conditions: concentration reducing bacterial agglutination of guinea pig red blood cells by greater than 90%; UTI89 bacteria;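 also: concentration in nM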
T1 construct: endogenous in cells; host or cells: E. coli UTI89 whole bacteria, agglutinating guinea pig red blood cells
Experimental: Hemagglutination Inhibition Assay (HAI)
The hemagglutination inhibition (HAI) assay was performed with UTI89 bacteria and guinea pig red blood cells, as previously described (S. J. Hultgren, W. R. Schwan, A. J. Schaeffer, J. L. Duncan Infect. Immun. 1986, 54, 613-620 and Jarvis, C.; Han, Z.; Kalas, V.; Klein, R.; Pinkner, J. S.; Ford, B.; Binkley, J.; Cusumano, C. K.; Cusumano, Z.; Mydock-McGrane, L.; Hultgren, S. J.; Janetka, J. W., ChemMedChem 2016, 11, 367-373).

[1] = Rat pharmacokinetics: IV infusion 1 mg/kg, then PO 5 mg/kg; blood and urine by LC-MS/MS; assay type: in vivo, Male Wistar Han rats; conditions: for bioavailability: male, Wistar Han, oral bioavailability, ratio of dose-normalised AUC PO (5 mg/kg) and IV infusion (1 mg/kg); for bioavailability / AUC: whole blood; for Ue % po: percentage of oral dose (5 mg/kg) eliminated unchanged in urine; for AUC: area under blood concentration-time profile, PO 5 mg/kg, male Wistar Han rats, n = 3
Excerpt: General Assays for Obtaining AUC Oral h*μm, % F, and Ue % PO Values
Male Wistar Han rats were purchased from Vital River Laboratory Animal Technology Co. Ltd (Beijing, China). The animals were approx. 6-8 weeks old with body weights of 200-300 g on the dosing date. The animals were housed in a 12-hour light/12-hour dark cycle environment and had free access to food and water. All animals were fed prior to dosing. Studies were approved by the Pharmaron Institutional Animal Care and Use Committee (IACUC).
Test article was administered as an intravenous infusion for 1 hour (1 mg/kg) at 5 mL/kg/h. After 48 h, animals received a single oral dose (5 mg/kg, free form) at a dose volume of 10 mL/kg, respectively. Blood samples were collected at various time points after IV infusion and PO administrations. Urine samples were collected at various time points after IV infusion and PO administrations.
Test article was dissolved in DMSO with vortexing and sonification to obtain a stock solution. An aliquot of the stock solution was mixed with 10% HP-β-CD in saline with vortexing to obtain a solution with concentration at 0.2 mg/mL of test article.
Test article was added into 1% Methyl Cellulose with vortexing and sonication to obtain a homogeneous suspension with concentration at 0.5 mg/mL of test article.
For IV infusion (1 mg/kg) administration, blood samples were collected from each animal at 0, 0.25, 0.5, 0.75, 1, 1.08, 1.25, 1.5, 1.75, 2, 3, 5, 8, 12, 24 hour post-dose.
For PO (5 mg/kg) administration, blood samples were collected from each animal at 0, 0.25, 0.5, 1, 1.5, 2, 3, 4, 6, 8, 12, 24 hour post-dose.
Blood samples (50 μL) were collected from each animal via jugular vein. These blood samples were placed into tubes containing K2EDTA. Whole blood was mixed with same volume of water and inverted several times. The blood samples were stored at −75±15° C. until analysis.
For IV infusion (1 mg/kg) administration, urine samples were collected from each animal at 0-4, 4-8, 8-12, 12-24 hour post-dose.
For PO (5 mg/kg) administration, urine samples were collected from each animal at 0-4, 4-8, 8-12, 12-24 hour post-dose.
Urine samples were collected continuously into containers maintained over dry ice at the intervals outlined below and stored at −80° C. prior to analysis.
55 μL of standards, 55 μL of QC samples or 55 μL of unknown samples (50 μL of blood or urine with 5 μL 50% acetonitrile) were mixed to 200 μL of acetonitrile containing IS (dexamethasone) to precipitate proteins. Then the samples were vortexed for 30 sec. After centrifugation at 4° C., 4700 rpm for 30 min, and 5 μL of the supernatant was injected into the LC-MS/MS system for quantitative analysis.
Test article blood and urine concentrations for each animal following IV infusion at 1 mg/kg and PO at 5 mg/kg were used to calculate pharmacokinetic parameters by employing a non-compartmental analysis (Phoenix™ WinNonlin® 7.0). The linear trapezoidal algorithm was used for AUC calculation.

Structure (SMILES)	HAI titer EC > 90 (FimH)	further results
Cc1cc(-c2cc(F)c(C)c(F)c2)ccc1[C@@H](O)[C@H]1O[C@H](CO)[C@@H](O)[C@H](O)[C@@H]1O [Example 1, (2R,3S,4S,5S,6R)-2-((R)-(3′,5′-Difluoro-3,4′-dimethyl-[1,1′-biphenyl]-4-yl)(hydroxy)methyl)-6-(hydroxymethyl)tetrahydro-2H-pyran-3,4,5-triol]	“++++” (<50 “++++”)	bioavailability [1]: 10 to 30%; Ue % po [1]: “++” (0.5 <= x <= 5%); AUC [1]: < 0.5 µM·h
Cc1cc(-c2cc(F)c(Cl)c(F)c2)ccc1[C@@H](O)[C@H]1O[C@H](CO)[C@@H](O)[C@H](O)[C@@H]1O [Example 2, (2R,3S,4S,5S,6R)-2-((R)-(4′-Chloro-3′,5′-difluoro-3-methyl-[1,1′-biphenyl]-4-yl)(hydroxy)methyl)-6-(hydroxymethyl)tetrahydro-2H-pyran-3,4,5-triol]	“++++” (<50 “++++”)	bioavailability [1]: 10 to 30%; Ue % po [1]: “++” (0.5 <= x <= 5%); AUC [1]: > 1 µM·h
Cc1cc(-c2cc(F)c(Br)c(F)c2)ccc1[C@@H](O)[C@H]1O[C@H](CO)[C@@H](O)[C@H](O)[C@@H]1O [Example 3, (2R,3S,4S,5S,6R)-2-((R)-(4′-Bromo-3′,5′-difluoro-3-methyl-[1,1′-biphenyl]-4-yl)(hydroxy)methyl)-6-(hydroxymethyl)tetrahydro-2H-pyran-3,4,5-triol]	“++++” (<50 “++++”)	bioavailability [1]: 10 to 30%; Ue % po [1]: “++” (0.5 <= x <= 5%); AUC [1]: > 1 µM·h
Cc1cc(-c2ccc(C(F)(F)F)c(C(F)(F)F)c2)ccc1[C@@H](O)[C@H]1O[C@H](CO)[C@@H](O)[C@H](O)[C@@H]1O [Example 67]	“++++” (<50 “++++”)	
Cc1cc(-c2ccc([C@@H](O)[C@H]3O[C@H](CO)[C@@H](O)[C@H](O)[C@@H]3O)c(C)c2)cc(C(F)(F)F)c1 [Example 68]	“++++” (<50 “++++”)	
COc1ccc(-c2ccc([C@@H](O)[C@H]3O[C@H](CO)[C@@H](O)[C@H](O)[C@@H]3O)c(C)c2)cc1C(F)(F)F [Example 69]	“++++” (<50 “++++”)	
Cc1cc(-c2cc(F)cc(F)c2F)ccc1[C@@H](O)[C@H]1O[C@H](CO)[C@@H](O)[C@H](O)[C@@H]1O [Example 70]	“++++” (<50 “++++”)	
COc1c(F)cc(-c2ccc([C@@H](O)[C@H]3O[C@H](CO)[C@@H](O)[C@H](O)[C@@H]3O)c(C)c2)cc1Cl [Example 71]	“++++” (<50 “++++”)	
Cc1cc(-c2cccc(C(F)(F)F)c2)ccc1[C@@H](O)[C@H]1O[C@H](CO)[C@@H](O)[C@H](O)[C@@H]1O [Example 75]	“+++” (50-200 “+++”)	
COc1cc(-c2ccc([C@@H](O)[C@H]3O[C@H](CO)[C@@H](O)[C@H](O)[C@@H]3O)c(C)c2)ccc1C(F)(F)F [Example 76]	“++++” (<50 “++++”)	
Cc1cc(-c2cccc(F)c2)ccc1[C@@H](O)[C@H]1O[C@H](CO)[C@@H](O)[C@H](O)[C@@H]1O [Example 77]	“+++” (50-200 “+++”)	
CCOc1ccc(-c2ccc([C@@H](O)[C@H]3O[C@H](CO)[C@@H](O)[C@H](O)[C@@H]3O)c(C)c2)cc1F [Example 81]	“++++” (<50 “++++”)	
COc1cc(F)c(-c2ccc([C@@H](O)[C@H]3O[C@H](CO)[C@@H](O)[C@H](O)[C@@H]3O)c(C)c2)cc1F [Example 82]	“++++” (<50 “++++”)	
Cc1cc(-c2ccc(CN(C)C)c(F)c2)ccc1[C@@H](O)[C@H]1O[C@H](CO)[C@@H](O)[C@H](O)[C@@H]1O [Example 83]	“++++” (<50 “++++”)	
Cc1cc(-c2cc(C)c(C)c(F)c2)ccc1[C@@H](O)[C@H]1O[C@H](CO)[C@@H](O)[C@H](O)[C@@H]1O [Example 84]	“++++” (<50 “++++”)	
Cc1cc(-c2cc(F)cc(C(F)F)c2)ccc1[C@@H](O)[C@H]1O[C@H](CO)[C@@H](O)[C@H](O)[C@@H]1O [Example 85]	“++++” (<50 “++++”)	
Cc1cc(-c2cc(C(F)F)cc(C(F)F)c2)ccc1[C@@H](O)[C@H]1O[C@H](CO)[C@@H](O)[C@H](O)[C@@H]1O [Example 86]	“++++” (<50 “++++”)	

Structure (SMILES)	HAI titer EC > 90 (FimH)	further results
COc1cc(-c2ccc([C@@H](O)[C@H]3O[C@H](CO)[C@@H](O)[C@H](O)[C@@H]3O)c(C)c2)cc(F)c1C(F)(F)F [Example 87]	“++++” (<50 “++++”)	
Cc1cc(-c2cc(C)c(F)c(F)c2)ccc1[C@@H](O)[C@H]1O[C@H](CO)[C@@H](O)[C@H](O)[C@@H]1O [Example 88]	“++++” (<50 “++++”)	
Cc1cc(-c2cc(F)c(C(C)C)c(F)c2)ccc1[C@@H](O)[C@H]1O[C@H](CO)[C@@H](O)[C@H](O)[C@@H]1O [Example 89]	“++++” (<50 “++++”)	
Cc1cc(-c2cc(OC(C)C)cc(C(F)(F)F)c2)ccc1[C@@H](O)[C@H]1O[C@H](CO)[C@@H](O)[C@H](O)[C@@H]1O [Example 90]	“+++” (50-200 “+++”)	
CCCc1c(F)cc(-c2ccc([C@@H](O)[C@H]3O[C@H](CO)[C@@H](O)[C@H](O)[C@@H]3O)c(C)c2)cc1F [Example 92]	“++++” (<50 “++++”)	
Cc1cc(-c2cc(F)c(OC(F)F)c(F)c2)ccc1[C@@H](O)[C@H]1O[C@H](CO)[C@@H](O)[C@H](O)[C@@H]1O [Example 96]	“++++” (<50 “++++”)	
OC[C@H]1O[C@H]([C@H](O)c2ccc(-c3cc(F)c(F)c(F)c3)cc2C(F)(F)F)[C@@H](O)[C@@H](O)[C@@H]1O [Example 97]	“++++” (<50 “++++”)	
Cc1cc(-c2ccc(F)cc2)ccc1[C@@H](O)[C@H]1O[C@H](CO)[C@@H](O)[C@H](O)[C@@H]1O [Example 98]	“+++” (50-200 “+++”)	
Cc1cc(-c2ccc(Cl)cc2)ccc1[C@@H](O)[C@H]1O[C@H](CO)[C@@H](O)[C@H](O)[C@@H]1O [Example 99]	“+++” (50-200 “+++”)	
Cc1cc(-c2ccc(C3CC3)cc2)ccc1[C@@H](O)[C@H]1O[C@H](CO)[C@@H](O)[C@H](O)[C@@H]1O [Example 100]	“+++” (50-200 “+++”)	
COCc1c(F)cc(-c2ccc([C@@H](O)[C@H]3O[C@H](CO)[C@@H](O)[C@H](O)[C@@H]3O)c(C)c2)cc1F [Example 102]	“++++” (<50 “++++”)	
C#Cc1c(F)cc(-c2ccc([C@@H](O)[C@H]3O[C@H](CO)[C@@H](O)[C@H](O)[C@@H]3O)c(C)c2)cc1F [Example 103]	“++++” (<50 “++++”)	
Cc1cc(-c2cc(F)c(N(C)C)c(F)c2)ccc1[C@@H](O)[C@H]1O[C@H](CO)[C@@H](O)[C@H](O)[C@@H]1O [Example 104]	“++++” (<50 “++++”)	
Cc1cc(-c2ccc(C(F)(F)F)cc2)ccc1[C@@H](O)[C@H]1O[C@H](CO)[C@@H](O)[C@H](O)[C@@H]1O [Example 105]	“+++” (50-200 “+++”)	
COc1cc(-c2ccc([C@@H](O)[C@H]3O[C@H](CO)[C@@H](O)[C@H](O)[C@@H]3O)c(C)c2)cc(C(F)(F)F)c1F [Example 106]	“++++” (<50 “++++”)	
Cc1cc(-c2cc(F)cc(N(C)C)c2)ccc1[C@@H](O)[C@H]1O[C@H](CO)[C@@H](O)[C@H](O)[C@@H]1O [Example 109]	“++++” (<50 “++++”)	
Cc1cc(-c2cc(F)c(F)c(C(F)(F)F)c2)ccc1[C@@H](O)[C@H]1O[C@H](CO)[C@@H](O)[C@H](O)[C@@H]1O [Example 110]	“++++” (<50 “++++”)	
